Counter-ions that a name gives are not always drawn.
What was measured:
Panc1 cells = assay: Seahorse OCR in Panc1 cell line; assay type: cell-based, Human; settings: increasing concentrations (sildenafil citrate 0, 5, 10, 20; 8-Bromo-cAMP 0, 10, 20)
Procedure: FIGS. 7A-7D show OCR and cellular toxicity data. […] Bars represent mean OCR and PDE10 inhibitory activities from at least 5 (OCR) or 3 (PDE) replicates. All experiments were repeated at least twice. […] Values are mean+−SEM.
(§1) Seahorse analysis of the OCR. Oxygen consumption rate (OCR) was measured using Seahorse XF96 Flux Analyzer (Agilent Technologies). The cells were seeded to attach overnight, wells were washed with pre-warmed XF Calibrant (Agilent Technologies) and the replaced with unbuffered Assay Medium (pH 7.4, 5 mM glucose, 1 mM L-glutamine). The plates were incubated at 37° C. in a CO2-free incubator for 2 hours prior to assay. For succinate rescue assay, cells were permeabilized using XF Plasma Membrane Permeabilizer Reagent (XF PMP, Agilent Technologies) according to the manufacturer's instructions. The OCR rate was measured in 1× Mitochondrial Assay Solution (MAS) (70 mM sucrose, 220 mM mannitol, 10 mM KH2PO4, 5 mM MgCl2, 2 mM Hepes, 0.6% (w/v) fatty acid-free BSA and 1 mM EGTA; pH 7.4). After baseline oxygenation was established, 1 μM rotenone or 10 μM PPV was injected at time A, followed by 5 mM succinate at time B. Error bars represent standard deviation. For the washout experiment, EO771 cells were seeded overnight, then treated with 10 μM PPV or 1 μM rotenone 3 hours prior to OCR measurement. Media was replaced 1 and 2 hours before measurement and OCR reported.

EO771 tumors [1] = assay: Pimonidazole staining, hypoxic fraction of EO771 tumors; assay type: in vivo, mice; settings: orthotopic EO771, immune-competent mice, 2 mg per kg
Procedure: (§2) P values were calculated against thigh muscle with two-tailed two-sample t test. FIG. 3B-3C show normalized tissue oxygenation in EO771 (b) or A549 (c) tumor-bearing mice after injection of 2 mg/kg PPV or vehicle saline (readings taken every minute, and curve is average of 5 traces). P value was analyzed by linear mixed model with autoregressive correlation structure at T=30-40 minutes. […] Values are mean area covered by pimonidazole-positive cells evaluated from 20 images per animal+−SEM. P value was calculated with two-tailed two-sample t test. […] Curves represent mean tumor volumes+−SEM. P values were calculated against XRT with two-tailed two-sample t test.
(§3) Bar graphs represent the mean area covered by pimonidazole-positive cells evaluated from 20 images per animal+−standard error of the mean. P value was calculated against control with two-tailed two-sample t test. […] Mean volumes+−SEM. P values were calculated against XRT with two-tailed two-sample t test. *P<0.05; **P<0.01; ***P<0.001; ****P<0.0001; n.s., not significant.
Pimonidazole staining. […] […] […] The hypoxic fraction of each tumor was quantified by thresholding signal at 50% of the maximum signal on control sections. Area covered by pimonidazole-positive cells was evaluated from 20 images per animal and averaged. Error bars represent the standard deviation.

EO771 tumors [2] = assay: Tumor growth delay of EO771 tumors with radiation (XRT); assay type: in vivo, mice; settings: heterotopic EO771 flank tumors, nude mice, 2 mg/kg 35 minutes prior to 5 Gy
Procedure: as §2
FIGS. 4A-4G show tumor growth before and after radiosensitization with PPV. FIG. 4A-4B show in vitro radiation survival assessment of A549 cell line treated with 10 μm PPV in normoxia (FIG. 4A) and anoxia (FIG. 4B). […] Values represent averaged colony counts+−standard deviation. […] Values are mean tumor volumes+−SEM. […] Values are mean tumor volumes+−SEM. FIG. 4E-4F show tumor growth delay. When tumors reached 4-fold volume increase, groups receiving no treatment or PPV only (FIG. 4E); and XRT only or PPV followed by XRT (FIG. 4F), tumor weights were compared. Values are mean tumor weights+−SEM (n=8). P values were calculated with two-tailed two-sample t test. FIG. 4G are related to FIG. 4E-4F tumor growth delay. Representative images of orthotopic EO771 tumors harvested on day 11 after treatment with XRT (top) or 2 mg/kg PPV followed by XRT (bottom). *P<0.05; **P<0.01; ***P<0.001; ****P<0.0001; n.s., not significant.
as §3
Tumor Growth kinetics. 2×10^6 EO771 or 5×10^6 A549 cells were injected s.c. into the flanks of 6-week old female immunocompetent C57/B6 (EO771) or immunocompromised nu/nu (A549) mice. Caliper measurements of opposing diameter were used to calculate the tumor volumes. Upon reaching […], the tumors were visualized by cone beam CT and treatment plans calculated using SARRP software. X-rays were delivered with a single beam delivering 5 Gy using the Small Animal Research Radiation Platform (SARRP, Xstrahl). Tumor volumes were measured until the post treatment volume increased 3-fold. Error bars represent standard deviation.
Both models of transplanted tumors that were used for the oxygenation experiments of papaverine's effect on radiation response in vivo were investigated. The murine breast cancer line EO771 that is syngeneic with the BL6 strain of mice was used and transplanted it orthotopically into the mammary fat pad of immune-competent mice. Also used was the human A549 lung adenocarcinoma line that was transplanted into the flank of immune-deficient mice. The breast cancers grew to approximately 150 mm^3 and were then randomized to receive either no treatment, a single dose of either 5 Gy, or papaverine at 2 mg/kg followed 30-40 minutes later by 5 Gy.

A549 cells = assay: Seahorse OCR in A549 cells (dose response, IC50, washout); assay type: cell-based, Human; settings: Homo sapiens; A549 cells by Seahorse, n=5 replicates; read-out: mitochondrial IC50 (OCR IC50)
mitochondrial complex 1 = assay: Seahorse OCR inhibition of PPV derivatives, normalized to PPV; assay type: cell-based
Procedure: (§4) FIGS. 7A-7D show OCR and cellular toxicity data. […]. Bars represent mean OCR and PDE10 inhibitory activities from at least 5 (OCR) or 3 (PDE) replicates. All experiments were repeated at least twice. […] Values are mean+−SEM.
as §1
Because PPV's effect on mitochondrial function is independent of cAMP levels it was reasoned that there are two activities in PPV, one inhibiting complex 1 and one inhibiting PDE10A that may reside in different parts of the molecule. The structure activity relationship of PPV relative to two assays was assessed: inhibition of cellular OCR by Seahorse, and inhibition of PDE10A by purified enzyme activity in multiwell plate (PDE10A activity assay kit, BPS Bioscience). Because PPV can compete with rotenone as complex 1 inhibitors, it was reasoned that they may be binding the same site and therefore the structures would be similar relative to the mitochondrial binding target. […] Because the top was a planar structure similar to that of rotenone, and they compete with each other for the same binding pocket on complex 1 (FIG. 10) the lower portion of the molecule and how it may resemble rotenone were investigated in more detail. It was established that flexible linkage was preferred for mitochondrial activity and bulky adducts to the lower benzene ring may block it (FIG. 7C). […] These lead compounds were synthesized from commercial precursors and purified on silica gel column. Structures were confirmed by ^1H NMR and found to be >95% pure by HPLC.

PDE10A = target: T1, PDE10A (Homo sapiens, UniProt Q9Y233); assay: PDE10A enzymatic assay (PDE10A activity assay kit, BPS Bioscience); assay type: biochemical
T1 construct: purchased BPS Bioscience
T1 sequence (Q9Y233 267-1055): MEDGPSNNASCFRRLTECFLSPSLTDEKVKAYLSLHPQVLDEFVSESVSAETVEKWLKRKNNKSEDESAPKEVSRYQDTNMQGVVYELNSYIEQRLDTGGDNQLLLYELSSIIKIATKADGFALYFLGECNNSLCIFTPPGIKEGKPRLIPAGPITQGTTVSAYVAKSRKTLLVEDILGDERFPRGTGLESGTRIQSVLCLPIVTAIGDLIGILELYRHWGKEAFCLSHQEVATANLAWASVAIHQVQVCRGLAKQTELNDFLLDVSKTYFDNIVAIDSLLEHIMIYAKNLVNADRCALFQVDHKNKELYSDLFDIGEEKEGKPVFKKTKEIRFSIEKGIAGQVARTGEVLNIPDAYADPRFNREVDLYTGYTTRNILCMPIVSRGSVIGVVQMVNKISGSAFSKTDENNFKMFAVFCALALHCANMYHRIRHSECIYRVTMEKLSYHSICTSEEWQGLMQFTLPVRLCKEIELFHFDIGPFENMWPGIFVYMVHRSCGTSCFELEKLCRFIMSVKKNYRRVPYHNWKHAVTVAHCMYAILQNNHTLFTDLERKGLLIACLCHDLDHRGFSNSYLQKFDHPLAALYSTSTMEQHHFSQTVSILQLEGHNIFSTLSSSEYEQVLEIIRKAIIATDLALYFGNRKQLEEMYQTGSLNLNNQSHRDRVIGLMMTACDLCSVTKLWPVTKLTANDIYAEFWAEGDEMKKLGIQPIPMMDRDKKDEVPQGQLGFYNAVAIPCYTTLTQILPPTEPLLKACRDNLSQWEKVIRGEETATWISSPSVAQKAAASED
Procedure: FIGS. 7A-7D show OCR and cellular toxicity data. […] Bars represent mean OCR and PDE10 inhibitory activities from at least 5 (OCR) or 3 (PDE) replicates. All experiments were repeated at least twice. […] Values are mean+−SEM. […]
The structure activity relationship of PPV relative to two assays was assessed: inhibition of cellular OCR by Seahorse, and inhibition of PDE10A by purified enzyme activity in multiwell plate (PDE10A activity assay kit, BPS Bioscience). […] These lead compounds were synthesized from commercial precursors and purified on silica gel column.

[3] = Cellular toxicity of PPV derivatives by trypan blue; assay type: cell-based; settings: 10 uM, 72 h
Procedure: as §4
Experimental: Cell lines. All cell lines were purchased from the American Type Culture Collection (ATCC) and grown DMEM (Corning) supplemented with 10% FBS (Seradigm) and 1% Penicillin/Streptomycin (Fisher Bioreagents) at 37° C. in 5% CO2. Cells were treated with inhibitors papaverine hydrochloride (Sigma-Aldrich), rotenone (Sigma-Aldrich), piericidin A (Santa Cruz), capsaicin (Sigma-Aldrich), antimycin A (Sigma-Aldrich) and succinic acid disodium salt (Sigma-Aldrich). Cell viability was assessed by trypan blue exclusion.

SMILES: CCCc1nn(C)c2c(=O)[nH]c(-c3cc(S(=O)(=O)N4CCN(C)CC4)ccc3OCC)nc12 [sildenafil citrate]
- effect on OCR (Panc1 cells): no effect

SMILES: COc1cc2ccnc(Cc3cc(C)cc(C)c3)c2cc1OC [SMV-23]
- tumor hypoxia by pimonidazole staining (EO771 tumors [1]): no effect on hypoxia
- growth delay compared to radiation alone (EO771 tumors [2]): no increase in growth delay
- IC50 (A549 cells): 94 µM
- Inhibitory activity OCR % of PPV (mitochondrial complex 1; Seahorse, OCR inhibition at 10 μM concentration, normalized to PPV): 20.37 % of PPV
- complex 1 activity compared to PPV (mitochondrial complex 1; compared to PPV): 20%
- IC20 (PDE10A; PDE10A2 enzymatic assay, n=3 replicates, read-out: PDE IC20 (PDE10A IC20)): 0.5 µM
- Inhibitory activity PDE10A % of PPV (PDE10A; PDE10A inhibition at 1 μM, normalized to PPV): 121.49 % of PPV
- PDE10 activity compared to PPV (PDE10A; compared to PPV): 125%
- cellular toxicity in vitro [3]: Neither of these compounds shows cellular toxicity

Source: US20210163453A1, “DERIVATIVES OF PAPAVERINE THAT ARE EFFECTIVE HYPOXIC TUMOR RADIOSENSITIZERS” (Ohio State Innovation Foundation, priority 2018, published 2021)
